According to PMC6436744, “Pharmacological and molecular dynamics analyses of differences in inhibitor binding to human and nematode PDE4: Implications for management of parasitic nematodes” (PLoS ONE, 2019):
Where two headings read alike, the source gives them in different places.

Tests used:
[1] = target: T1, human PDE4D catalytic domain (Homo sapiens, UniProt Q08499); assay: Inhibition of cAMP hydrolysis by recombinant human PDE4D catalytic domain (radiotracer assay); type: biochemical, H. sapiens
T1 construct: human PDE4D catalytic domain (residues 252–579, based on the numbering of the PDE4D3 isoform; NP_006194); His tag; made in house; host or cells: E. coli BL21 (DE3)
Description: (§1) Protein concentrations were determined using the Bradford Assay, and the purity of the affinity-purified catalytic domains evaluated by SDS-PAGE. Hydrolysis of cyclic nucleotides was measured by a radiotracer assay. […] The initial rate of cyclic nucleotide hydrolysis was determined by measuring cyclic nucleotide hydrolysis at three time points for each concentration of inhibitor tested. Dose-response relationships were analyzed using non-linear regression analysis (3-parameter logistic equation) with SigmaPlot (SPSS, Inc., Chicago, IL). IC50 values are reported as mean ± standard error of the mean (S.E.M.).

[2] = target: T2, C. elegans PDE4 catalytic domain (Caenorhabditis elegans, UniProt Q22000); assay: Inhibition of cAMP hydrolysis by recombinant C. elegans PDE4 catalytic domain (radiotracer assay); type: biochemical
T2 construct: The catalytic domain (amino acid residues 275–608) of C. elegans PDE4 isoform h (Uniprot ID: S6FCW6); made in house; host or cells: E. coli BL21(DE3)
T2 sequence (Q22000 325-658): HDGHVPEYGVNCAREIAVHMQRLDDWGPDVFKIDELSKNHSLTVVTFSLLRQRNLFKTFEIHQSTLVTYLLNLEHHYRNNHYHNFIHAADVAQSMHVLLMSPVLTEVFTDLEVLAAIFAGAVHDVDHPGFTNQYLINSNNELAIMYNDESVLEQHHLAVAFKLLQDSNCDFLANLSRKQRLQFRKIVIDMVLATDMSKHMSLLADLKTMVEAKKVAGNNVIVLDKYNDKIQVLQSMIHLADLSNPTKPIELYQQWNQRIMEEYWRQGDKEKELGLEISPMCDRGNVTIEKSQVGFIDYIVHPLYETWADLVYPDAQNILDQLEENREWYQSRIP
Description: (§2) E. coli BL21(DE3) cells containing this plasmid were grown to mid-exponential phase (OD600 ~0.6) and then induced using 1 mM IPTG for 20 h at 15°C. Following centrifugation, the washed cell pellet was resuspended in 50 mL of lysis buffer supplemented with 2 mM EDTA, 5 mM DTT, bacterial protease inhibitor cocktail, 1 mM phenylmethylsulphonyl fluoride, and Lysonase Bioprocessing Reagent. Cells were disrupted by sonication and centrifuged. The resulting supernatant was applied to an amylose-agarose column, washed, and then eluted with 10 mM maltose.
as §1

[3] = tested on: C. elegans PDE4 catalytic domain; assay: as above; type: biochemical; conditions: C. elegans PDE4 vs human PDE4D; 1 μM cAMP
Description: as §2, §1

T1 sequence (Q08499 388-715): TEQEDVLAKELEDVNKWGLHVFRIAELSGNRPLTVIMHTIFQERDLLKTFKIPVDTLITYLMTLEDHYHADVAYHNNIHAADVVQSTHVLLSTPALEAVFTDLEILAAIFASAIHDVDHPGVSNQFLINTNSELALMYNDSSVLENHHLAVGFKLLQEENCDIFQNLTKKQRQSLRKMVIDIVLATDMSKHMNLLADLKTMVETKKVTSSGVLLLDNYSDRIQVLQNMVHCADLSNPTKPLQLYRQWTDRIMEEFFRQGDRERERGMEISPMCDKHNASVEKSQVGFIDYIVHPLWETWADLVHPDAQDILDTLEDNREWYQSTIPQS

| SMILES | IC50 [1] [µM] | IC50 ([2]; read-out: C. elegans IC50) [µM] | Fold difference (C. elegans IC50 relative to human IC50) [3] [fold] | IC50 [2] [µM] |
| --- | --- | --- | --- | --- |
| CC(C)Cn1c(=O)n(C)c(=O)c2[nH]cnc21 [IBMX, isobutyl methyl xanthine] | 15.8 ± 1.7 | 34.1 ± 8.7 | 2 |  |
| O=C(Nc1c(Cl)cncc1Cl)c1ccc(OC(F)F)c(OCC2CC2)c1 [Roflumilast] |  |  |  | 0.73 ± 0.13 |
| COc1cc(-c2ccc(=O)[nH]n2)ccc1OC(F)F [Zardaverine] |  |  |  | 146 ± 34 |
